Measurements as given in patent US4410716A, “Dibenzo[a,d]cycloheptene derivatives and process for production thereof” (Toa Eiyo Kagaku Kogyo Co. Ltd., priority 1979, dated 1983).
Where two headings read alike, the source gives them in different places.

Tests used:
[1] = tested on: writhing syndromes (acetic acid); test: Analgesic activity: acetic acid writhing in mice; type: in vivo, male ICR mice
Experimental: (§1) The anti-inflammatory activity, analgesic activity and ulcerogenic activity of the novel dibenzo[a,d]cycloheptene derivatives of this invention were tested by the following methods.
Using male ICR mice weighing 25 to 30 g (10 mice per group), there was measured the number of writhing syndromes induced when a 1% solution of acetic acid was intraperitoneally injected at a dose of 10 ml/kg. The percent inhibition against a control group was calculated.

[2] = tested on: edema (carrageenin, hind paw); test: Anti-inflammatory activity: carrageenin hind paw edema in rats, oral administration; type: in vivo, male Donryu rats; conditions: Rattus norvegicus, po; for inhibition in vivo at 1 mg/kg / inhibition in vivo at 5 mg/kg / inhibition in vivo at 10 mg/kg: read-out: Percent edema inhibition
Experimental: as §1
Each of test compounds was orally administered to groups of male Donryu rats weighing 130 to 150 g (8 to 10 rats per group), and one hour later, 0.1 ml of a 1% carrageenin solution was injected subcutaneously into the hind paw of each rat. After injection of carrageenin, the volume of the paw was measured at predetermined periods, and the percent inhibition against a control group was calculated.

gastric wall = test: in vivo; conditions: for Number of animals with ulcer/number of animals used: 16 hours; for Ulcer index (Mean ± SE): Adami's method
Experimental: as §1
(§2) Sixteen hours later, the rats were sacrificed under ether anesthesia.
(§3) *Calculated by the Adami's method.
(§4) **Calculated by the LitchfieldWilcoxon's method. The parenthesized values
(§5) show 95% confidence limits.

in vivo = conditions: rat, in vivo, po
Experimental: as §1, §2, §3, §4, §5

## COc1ccc2c(c1)c(CC(=O)O)c(C)n2C(=O)c1ccc(Cl)cc1 [Indomethacin, reference compound]
[1]; 1.25 mg/kg
  Inhibition (writhing): 27.7%
  Number of writhing syndromes (Mean ± SE): 14.6 ± 2.35
[1]; 2.5 mg/kg
  Inhibition (writhing): 40.6%
  Number of writhing syndromes (Mean ± SE): 12.0 ± 0.92
[1]; 5.0 mg/kg
  Inhibition (writhing): 48.0%
  Number of writhing syndromes (Mean ± SE): 10.5 ± 1.40
[1]; 10.0 mg/kg
  Inhibition (writhing): 62.4%
  Number of writhing syndromes (Mean ± SE): 7.6 ± 1.15
[1]; 20.0 mg/kg
  Inhibition (writhing): 70.3%
  Number of writhing syndromes (Mean ± SE): 6.0 ± 0.94
[1]; Mus musculus, po, read-out: ED50 value
  ED50: 5 mg/kg
[2]; 1 h
  inhibition in vivo at 1 mg/kg: 0%
  inhibition in vivo at 5 mg/kg: 3.9%
  inhibition in vivo at 10 mg/kg: 37.2%
[2]; 2 h
  inhibition in vivo at 1 mg/kg: 20.3%
  inhibition in vivo at 5 mg/kg: 31.1%
  inhibition in vivo at 10 mg/kg: 45.3%
[2]; 3 h, read-out: ED40 value
  ED40: 9.8 mg/kg
[2]; 3 h
  inhibition in vivo at 1 mg/kg: 6.3%
  inhibition in vivo at 5 mg/kg: 25.9%
  inhibition in vivo at 10 mg/kg: 41.8%
[2]; 4 h
  inhibition in vivo at 1 mg/kg: 10.2%
  inhibition in vivo at 5 mg/kg: 31.7%
  inhibition in vivo at 10 mg/kg: 40.5%
Gastric wall; 3.13 mg/kg oral
  Number of animals with ulcer/number of animals used: 0/8
  Ulcer index (Mean ± SE): 0
Gastric wall; 6.25 mg/kg oral
  Number of animals with ulcer/number of animals used: 2/8
  Ulcer index (Mean ± SE): 0.37 ± 0.26
Gastric wall; 12.5 mg/kg oral
  Number of animals with ulcer/number of animals used: 4/8
  Ulcer index (Mean ± SE): 1.38 ± 0.53
Gastric wall; 25.0 mg/kg oral
  Number of animals with ulcer/number of animals used: 7/8
  Ulcer index (Mean ± SE): 1.88 ± 0.35
Gastric wall; 50.0 mg/kg oral
  Number of animals with ulcer/number of animals used: 8/8
  Ulcer index (Mean ± SE): 3.12 ± 0.12
In vivo
  TD50 at 16 h: 11.7 mg/kg
  selectivity ratio: 1.2
